Test results as given in patent US20120016011A1, “RNA Interference Mediated Inhibition of Connective Tissue Growth Factor (CTGF) Gene Expression Using Short Interfering Nucleic Acid (siNA)” (Merck Sharp & Dohme Corp., priority 2009, published 2012).
[invAb] = inverted abasic unit; m = 2'-O-methyl; r = 2'-OH (RNA); f = 2'-fluoro

Tests used:
CTGF mRNA [1] = test: CTGF mRNA knockdown (Taqman RT-PCR) after siNA transfection of human NHLF cells; assay type: cell-based; settings: 10 nM siNA, 24 hrs, average of 3 experiments, vs non-targeting control
Outline: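 Normal human lung fibroblasts (5000 cells/well) were transfected 24 h after plating with 10 nM siNA complexed with RNAiMax and harvested 24 h later without a media change. CTGF mRNA was measured by TaqMan RT-qPCR on Cells-to-CT lysates, with β-actin and GAPDH assayed alongside. Knockdown was calculated by comparative Ct (ΔΔCt) against non-targeting control siNA.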

CTGF mRNA [2] = test: CTGF mRNA knockdown (Taqman RT-PCR) after siNA transfection of mouse NIH 3T3 cells; assay type: cell-based; settings: mouse NIH3T3 cells, 10 nM siNA, 24 hrs, average of 3 experiments, vs non-targeting control
Outline: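 Mouse NIH 3T3 cells, 5000/well, transfected 24 h after plating with siNA at 10 nM final using RNAiMax, 24 h exposure without media change. CTGF mRNA by TaqMan RT-qPCR with GAPDH, knockdown via comparative Ct (2^−ΔΔCt) against non-targeting control siNA.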

| Substance | % KD Human (CTGF mRNA [1]) | % KD Mouse (CTGF mRNA [2]) |
| --- | --- | --- |
| 48075-DC: siNA duplex; sense SEQ ID NO: 115 B ccucAGAcAcuGGuuucGA TTB; antisense SEQ ID NO: 116 UCGAAAccAGuGucuGAGGUU (sense CCUCAGACACUGGUUUCGATT; antisense UCGAAACCAGUGUCUGAGGUU; sense: DNA at AGT, 2'-fluoro at CU, [invAb] at 5' end, 3' end, backbone not given here; antisense: sugars from the 5' end rrrmmmffmmfmfffmmmmmm, backbone not given here) | 36 ± 9% | 69 ± 2% |
| 48050-DC: siNA duplex; sense SEQ ID NO: 65 B cuGccuGGuccAGAccAcA TTB; antisense SEQ ID NO: 66 UGUGGucuGGAccAGGcAGUU (sense CUGCCUGGUCCAGACCACATT; antisense UGUGGUCUGGACCAGGCAGUU; sense: DNA at AGT, 2'-fluoro at CU, [invAb] at 5' end, 3' end, backbone not given here; antisense: sugars from the 5' end rrrmmfffmmmffmmmfmmmm, backbone not given here) | 3 ± 18% | −13 ± 5% |
| 48054-DC: siNA duplex; sense SEQ ID NO: 73 B GAcuuGAcAGuGGAAcuAc TTB; antisense SEQ ID NO: 74 GUAGuuccAcuGucAAGucUU (sense GACUUGACAGUGGAACUACTT; antisense GUAGUUCCACUGUCAAGUCUU; sense: DNA at AGT, 2'-fluoro at CU, [invAb] at 5' end, 3' end, backbone not given here; antisense: sugars from the 5' end rrrmffffmffmffmmmffmm, backbone not given here) | 70 ± 5% | 17 ± 3% |
| 48066-DC: siNA duplex; sense SEQ ID NO: 97 B AcAGuuuAcAcuuGAcAGu TTB; antisense SEQ ID NO: 98 ACUGucAAGuGuAAAcuGuUU (sense ACAGUUUACACUUGACAGUTT; antisense ACUGUCAAGUGUAAACUGUUU; sense: DNA at AGT, 2'-fluoro at CU, [invAb] at 5' end, 3' end, backbone not given here; antisense: sugars from the 5' end rrrmffmmmfmfmmmffmfmm, backbone not given here) | 17 ± 7% | 80 ± 1% |
